Source: patent publication US10407428B2, “Spiro-isoquinoline-1,4′-piperidine compounds having multimodal activity against pain” (ESTEVE PHARMACEUTICALS, S.A., priority 2014, dated 2019)

These compounds were tested on human σ1 receptor and human μ-opioid receptor (assay: Human σ1 receptor radioligand assay and human μ-opioid receptor radioligand assay (μ and σ1 dual binding)). Details: not given.
Set-up: key to μ and σ1 dual binding: +: Both Ki-μ and Ki-σ1>=500 nM; ++: One Ki<500 nM while the other Ki is >=500 nM; +++: Both Ki-μ and Ki-σ1<500 nM; ++++: Both Ki-μ and Ki-σ1<100 nM

Question: Which “μ and σ1 dual binding” value does the source give for CC(=O)N1CCc2ccccc2C12CCN(CC1CCOCC1)CC2 [Example 9, 1-(1′-((tetrahydro-2H-pyran-4-yl)methyl)-3,4-dihydro-2H-spiro[isoquinoline-1,4'-piperidine]-2-yl)ethanone] here?
Answer: The value was “++”.

Question: With CC(=O)N1CCc2ccccc2C12CCN(CCOC(C)C)CC2 [Example 11, 1-(1′-(2-isopropoxyethyl)-3,4-dihydro-2H-spiro[isoquinoline-1,4′-piperidine]-2-yl)ethanone] as the compound, how does the Ki read?
Answer: Its Ki is under 500 nM.

Question: How did the “μ and σ1 dual binding” value turn out when CC(=O)N1CCc2ccccc2C12CCN(CC(C)C)CC2 [Example 12, 1-(1′-isobutyl-3,4-dihydro-2H-spiro[isoquinoline-1,4′-piperidine]-2-yl)ethanone] was run?
Answer: The value was “++”.

Question: How did the Ki turn out when CC(=O)N1CCc2ccccc2C12CCN(CC1CCCCC1)CC2 [Example 13, 1-(1′-(cyclohexylmethyl)-3,4-dihydro-2H-spiro[isoquinoline-1,4′-piperidine]-2-yl)ethanone] was run?
Answer: The Ki was under 500 nM.

Question: Which Ki does the source give for CC(=O)N1CCc2ccccc2C12CCN(CCC(C)C)CC2 [Example 15, 1-(1′-isopentyl-3,4-dihydro-2H-spiro[isoquinoline-1,4′-piperidine]-2-yl)ethanone] here?
Answer: The Ki was under 500 nM.

Question: CC(=O)N1CCc2ccccc2C12CCN(Cc1ccccn1)CC2 [Example 17, 1-(1′-(pyridin-2-ylmethyl)-3,4-dihydro-2H-spiro[isoquinoline-1,4′-piperidine]-2-yl)ethanone] was tested. Which “μ and σ1 dual binding” value did it give?
Answer: Its value is “++”.

Question: Which “μ and σ1 dual binding” value does the source give for CC(=O)N1CCc2ccccc2C12CCN(CCOc1ccccc1)CC2 [Example 20, 1-(1′-(2-phenoxyethyl)-3,4-dihydro-2H-spiro[isoquinoline-1,4′-piperidine]-2-yl)ethanone] here?
Answer: Its value is “++”.

Question: For CCOCCN1CCC2(CC1)c1ccccc1CCN2C(C)=O [Example 24, 1-(1′-(2-ethoxyethyl)-3,4-dihydro-2H-spiro[isoquinoline-1,4′-piperidine]-2-yl)ethanone], which “μ and σ1 dual binding” value is on record?
Answer: The value was “++”.

Question: Which Ki does the source give for CC(=O)N1CCc2ccccc2C12CCN(CCOCC1CC1)CC2 [Example 30, 1-(1′-(2-(cyclopropylmethoxy)ethyl)-3,4-dihydro-2H-spiro[isoquinoline-1,4′-piperidine]-2-yl)ethanone] here?
Answer: Its Ki is under 500 nM.

Question: For CC(=O)N1CCc2ccccc2C12CCN(CCOCC(C)C)CC2 [Example 31], which Ki is on record?
Answer: The Ki was under 500 nM.

Question: For CC(=O)N1CCc2ccccc2C12CCN(CCOCc1ccccc1)CC2 [Example 32, 1-(1′-(2-(benzyloxy)ethyl)-3,4-dihydro-2H-spiro[isoquinoline-1,4′-piperidine]-2-yl)ethanone], which “μ and σ1 dual binding” value is on record?
Answer: Its value is “++”.

Question: CC(=O)N1CCc2ccccc2C12CCN(CCC(=O)N(C)c1ccccc1)CC2 [Example 35, 3-(2-acetyl-3,4-dihydro-2H-spiro[isoquinoline-1,4′-piperidine]-1′-yl)-N-methyl-N-phenylpropanamide] was tested. Which “μ and σ1 dual binding” value did it give?
Answer: The value was “++”.

Question: CC(=O)N1CCc2ccccc2C12CCN(CCOc1ccccn1)CC2 [Example 42, 1-(1′-(2-(Pyridin-2-yloxy)ethyl)-3,4-dihydro-2H-spiro[isoquinoline-1,4′-piperidine]-2-yl)ethanone] was tested. Which “μ and σ1 dual binding” value did it give?
Answer: Its value is “++”.

Question: How did the “μ and σ1 dual binding” value turn out when CC(=O)N1CCc2ccccc2C12CCN(CCOc1cccnc1)CC2 [Example 43, 1-(1′-(2-(pyridin-3-yloxy)ethyl)-3,4-dihydro-2H-spiro[isoquinoline-1,4′-piperidine]-2-yl)ethanone] was run?
Answer: Its value is “++”.

Question: Which “μ and σ1 dual binding” value does the source give for CC(=O)N1CCc2ccccc2C12CCN(CCOc1ccncc1)CC2 [Example 44, 1-(1′-(2-(pyridin-4-yloxy)ethyl)-3,4-dihydro-2H-spiro[isoquinoline-1,4′-piperidine]-2-yl)ethanone] here?
Answer: Its value is “++”.

Question: How did the Ki turn out when CS(=O)(=O)N1CCc2ccccc2C12CCN(CCc1ccccc1)CC2 [Example 53, 2-(Methylsulfonyl)-1′-phenethyl-3,4-dihydro-2H-spiro[isoquinoline-1,4′-piperidine]] was run?
Answer: The Ki was under 100 nM.

Question: With CN1CCc2ccccc2C12CCN(CCc1ccccc1)CC2 [Example 54, 2-methyl-1′-phenethyl-3,4-dihydro-2H-spiro[isoquinoline-1,4′-piperidine]] as the compound, how does the Ki read?
Answer: The Ki was under 100 nM.

Question: For COc1ccc2c(c1)CCN(C)C21CCN(CCc2ccccc2)CC1 [Example 55, 6-methoxy-2-methyl-1′-phenethyl-3,4-dihydro-2H-spiro[isoquinoline-1,4′-piperidine]], which Ki is on record?
Answer: Its Ki is under 100 nM.

Question: With CCN(CC)C(=O)CN1CCC2(CC1)c1ccccc1CCN2C [Example 56, N,N-diethyl-2-(2-methyl-3,4-dihydro-2H-spiro[isoquinoline-1,4′-piperidine]-1′-yl)acetamide] as the compound, how does the Ki read?
Answer: The Ki was under 500 nM.

Question: For CN1CCc2ccccc2C12CCN(CC(=O)N1CCCOCC1)CC2 [Example 57, 2-(2-methyl-3,4-dihydro-2H-spiro[isoquinoline-1,4′-piperidine]-1′-yl)-1-(1,4-oxazepan-4-yl)ethanone], which “μ and σ1 dual binding” value is on record?
Answer: Its value is “++”.

Question: For CN1CCc2ccccc2C12CCN(CC(=O)N1CCC(F)CC1)CC2 [Example 58, 1-(4-fluoropiperidin-1-yl)-2-(2-methyl-3,4-dihydro-2H-spiro[isoquinoline-1,4′-piperidine]-1′-yl)ethanone], which Ki is on record?
Answer: Its Ki is under 500 nM.

Question: COC1CCN(C(=O)CN2CCC3(CC2)c2ccccc2CCN3C)CC1 [Example 60, 1-(4-methoxypiperidin-1-yl)-2-(2-methyl-3,4-dihydro-2H-spiro[isoquinoline-1,4′-piperidine]-1′-yl)ethanone] was tested. Which “μ and σ1 dual binding” value did it give?
Answer: Its value is “++”.

Question: With CN1CCc2ccccc2C12CCN(CC(=O)N1CCC(F)(F)CC1)CC2 [Example 61, 1-(4,4-difluoropiperidin-1-yl)-2-(2-methyl-3,4-dihydro-2H-spiro[isoquinoline-1,4′-piperidine]-1′-yl)ethanone] as the compound, how does the Ki read?
Answer: Its Ki is under 500 nM.

Question: With CN1CCc2ccccc2C12CCN(CC(=O)N1CCC3(CC1)CC3)CC2 [Example 62, 2-(2-methyl-3,4-dihydro-2H-spiro[isoquinoline-1,4′-piperidine]-1′-yl)-1-(6-azaspiro[2.5]octan-6-yl)ethanone] as the compound, how does the Ki read?
Answer: Its Ki is under 100 nM.

Question: Which Ki does the source give for CCN1CCc2ccccc2C12CCN(CCc1ccccc1)CC2 [Example 63, 2-Ethyl-1′-phenethyl-3,4-dihydro-2H-spiro[isoquinoline-1,4′-piperidine]] here?
Answer: The Ki was under 100 nM.

Question: For c1ccc(CCN2CCC3(CC2)c2ccccc2CCN3Cc2nccs2)cc1 [Example 64, 2-((1′-phenethyl-3,4-dihydro-2H-spiro[isoquinoline-1,4′-piperidine]-2-yl)methyl)thiazole], which Ki is on record?
Answer: The Ki was under 500 nM.

Question: CN1CCc2ccccc2C12CCN(CCN1CCOCC1)CC2 [Example 65, 4-(2-(2-Methyl-3,4-dihydro-2H-spiro[isoquinoline-1,4′-piperidine]-1′-yl)ethyl)morpholine] was tested. Which Ki did it give?
Answer: Its Ki is under 500 nM.

Question: How did the Ki turn out when CN1CCc2ccccc2C12CCN(CC1CCCCC1)CC2 [Example 66, 1′-(cyclohexylmethyl)-2-methyl-3,4-dihydro-2H-spiro[isoquinoline-1,4′-piperidine]] was run?
Answer: Its Ki is under 500 nM.

Question: CN1CCc2ccccc2C12CCN(CC1CCOCC1)CC2 [Example 67, 2-methyl-1′-((tetrahydro-2H-pyran-4-yl)methyl)-3,4-dihydro-2H-spiro[isoquinoline-1,4′-piperidine]] was tested. Which “μ and σ1 dual binding” value did it give?
Answer: Its value is “++”.

Question: Which Ki does the source give for CN(C)C(=O)CCN1CCC2(CC1)c1ccccc1CCN2C [Example 68, N,N-dimethyl-3-(2-methyl-3,4-dihydro-2H-spiro[isoquinoline-1,4′-piperidine]-1′-yl)propanamide] here?
Answer: The Ki was under 500 nM.

Same assay, conditions: combined class for Ki-μ ([3H]-DAMGO, CHO-K1 membranes) and Ki-σ1 ([3H](+)-pentazocine, HEK-293 membranes)

Question: With CC(=O)N1CCc2ccccc2C12CCN(CCN1CCCCC1)CC2 [Example 14, 1-(1′-(2-(piperidin-1-yl)ethyl)-3,4-dihydro-2H-spiro[isoquinoline-1,4′-piperidine]-2-yl)ethanone] as the compound, how does the Ki read?
Answer: The Ki was at least 500 nM.

Question: With CC(=O)N1CCc2ccccc2C12CCN(CCC(=O)N(C)C)CC2 [Example 22, 3-(2-acetyl-3,4-dihydro-2H-spiro[isoquinoline-1,4′-piperidine]-1′-yl)-N,N-dimethylpropanamide] as the compound, how does the Ki read?
Answer: Its Ki is at least 500 nM.

Question: CC(=O)N1CCc2ccccc2C12CCN(CC1CC1)CC2 [Example 33, 1-(1′-(Cyclopropylmethyl)-3,4-dihydro-2H-spiro[isoquinoline-1,4′-piperidine]-2-yl)ethanone] was tested. Which Ki did it give?
Answer: The Ki was at least 500 nM.

Question: With CC(=O)N1CCc2ccccc2C12CCN(CC(=O)N1CCOCC1)CC2 [Example 34, 2-(2-acetyl-3,4-dihydro-2H-spiro[isoquinoline-1,4′-piperidine]-1′-yl)-1-morpholinoethanone] as the compound, how does the Ki read?
Answer: The Ki was at least 500 nM.

Question: Which Ki does the source give for CC(=O)N1CCc2ccccc2C12CCN(CCNC(=O)OC(C)(C)C)CC2 [Example 37, tert-butyl 2-(2-acetyl-3,4-dihydro-2H-spiro[isoquinoline-1,4′-piperidine]-1′-yl)ethylcarbamate] here?
Answer: Its Ki is at least 500 nM.

Question: CC(=O)OC(CN1CCC2(CC1)c1ccccc1CCN2C(C)=O)c1ccccc1 (centres unmarked) [Example 39, 2-(2-Acetyl-3,4-dihydro-2H-spiro[isoquinoline-1,4′-piperidine]-1′-yl)-1-phenylethyl acetate] was tested. Which Ki did it give?
Answer: Its Ki is at least 500 nM.

Question: For CC(=O)N1CCc2ccccc2C12CCN(CCO)CC2 [Example 41, 1-(1′-(2-Hydroxyethyl)-3,4-dihydro-2H-spiro[isoquinoline-1,4′-piperidine]-2-yl)ethanone], which Ki is on record?
Answer: Its Ki is at least 500 nM.

Question: How did the Ki turn out when CC(=O)N1CCc2ccccc2C12CCN(CCN(C)C(=O)OC(C)(C)C)CC2 [Example 46, tert-Butyl 2-(2-acetyl-3,4-dihydro-2H-spiro[isoquinoline-1,4′-piperidine]-1′-yl)ethyl(methyl)carbamate] was run?
Answer: Its Ki is at least 500 nM.

Question: How did the Ki turn out when CNCCN1CCC2(CC1)c1ccccc1CCN2C(C)=O [Example 47, 1-(1′-(2-(Methylamino)ethyl)-3,4-dihydro-2H-spiro[isoquinoline-1,4′-piperidine]-2-yl)ethanone] was run?
Answer: The Ki was at least 500 nM.

Question: How did the Ki turn out when CC(=O)Oc1ccc2c(c1)CCN(C(C)=O)C21CCN(CCc2ccccc2)CC1 [Example 49, 2-Acetyl-1′-phenethyl-3,4-dihydro-2H-spiro[isoquinoline-1,4′-piperidine]-6-yl acetate] was run?
Answer: The Ki was at least 500 nM.

Question: With CN1CCc2ccccc2C12CCN(CC(=O)N1CCC(C(C)(C)O)CC1)CC2 [Example 59, 1-(4-(2-hydroxypropan-2-yl)piperidin-1-yl)-2-(2-methyl-3,4-dihydro-2H-spiro[isoquinoline-1,4′-piperidine]-1′-yl)ethanone] as the compound, how does the Ki read?
Answer: The Ki was at least 500 nM.
